Assay results published in patent US9771430B2, “Method of treating a metabolic disorder induced by obesity in a subject in need thereof by administering MK2/3 inhibitors” (THE TRUSTEES OF COLUMBIA UNIVERSITY IN THE CITY OF NEW YORK, priority 2011, dated 2017).

Tests used:
[1] = test system: CaMKII; type: cell-based, mouse
Description: FIG. 1A. CaMKII enzyme activity was assayed in triplicate wells of primary mouse HCs stimulated with 100 nM glucagon (Gluc) or vehicle control (Veh) for the indicated times (*P<0.05 and **P<0.01 vs. Veh; mean±S.E.M.). FIGS. 1B-1J. Extracts of HCs or liver were probed for phospho-CaMKII, total CaMKII, and β-actin by immunoblot assay. FIG. 1B. HCs were incubated with […] glucagon for the indicated times; FIG. 1C. Glucagon was added to HCs that were pre-treated for 1 h with vehicle control (Veh) or 5 μM BAPTA-AM; FIG. 1D. Glucagon was added to HCs that were pre-treated with 0.5 μM xestospongin (XesC) or to HCs from Ip3r1fl/fl mice transduced with adeno-LacZ control or adeno-Cre (bar graph=Ip3r1 mRNA levels); FIG. 1E. Glucagon was added to HCs that were pre-treated for 1 h with vehicle control (Veh) or 10 μM H89. FIG. 1F. […] FIGS. 1G-1J. In vivo experiments. In FIG. 1G, mice were treated for 30 min with 200 μg kg−1 body weight of glucagon i.p., and in FIG. 1H, mice were pre-treated with 10 pmol g−1 xestospongin C or vehicle control i.p. 4 days prior to glucagon treatment. In FIGS. 1I-1J, mice were fed ad libitum or fasted for 12 h, or fasted for 12 h and then re-fed for 4 h.
Total RNA was extracted from hepatocytes using the RNeasy kit (Qiagen). cDNA was synthesized from 2 μg total RNA using oligo (dT) and Superscript II (Invitrogen). Real-time qPCR analysis and western blotting were performed as previously described (Timmins et al., 2009). Nuclear extraction from liver was performed using the Nuclear Extraction Kit from Panomics according to the manufacturer's instructions.
Immunoblot and RT-qPCR assays were performed as previously described (Timmins et al., 2009). Total RNA was extracted from HCs using the RNeasy kit (Qiagen). cDNA was synthesized from 2 μg total RNA using oligo (dT) and Superscript II (Invitrogen). Nuclear extraction from liver was performed using the Nuclear Extraction Kit from Panomics according to the manufacturer's instructions.

[2] = test system: cytosolic free calcium; assay: Calcium mobilization in primary hepatocytes (Fura-2 imaging); type: cell-based, mouse; conditions: co-/pre-treatment with inhibitor
Description: Mouse primary hepatocytes were plated on glass coverslips and loaded with 5 μM Fura-2 acetoxymethyl ester (Molecular Probes) in the presence of 0.025% (w/v) pluronic F127 (Sigma-Aldrich) in Media 199 (Mediatech) for 30 minutes. […] The ratio of fluorescence intensity at the two excitation wavelengths was calculated after subtracting background fluorescence. [Ca2+]I (cytosolic free calcium concentration) was calculated using a Fura-2 calcium imaging calibration kit (Invitrogen). Images were collected and analyzed using the MetaFluor software package (Universal Imaging Corp.). Graphs represent average responses from groups of 30-40 individual cells from representative single experiments. Bar graphs represent average responses (fold over average baseline) from 150-200 cells per condition. All experiments were repeated at least three times with similar results.

[3] = test system: IP3R; assay: IP3R activity in FAO hepatocytes (Inositol/ATP-induced calcium release assay); type: cell-based, rat
Description: FIGS. 49A-S. The role of IP3R in forskolin/glucagon-induced G6Pase/PEPCK in cultured hepatocytes and in fasting blood glucose in vivo. FIG. 49 A,B. FSK-Induced G6Pase and PEPCK is Calcium-Dependent. FIG. 49C-D. IP3R Activity is Required for Forskolin- and Glucagon-Induced G6Pase and PEPCK (FAO rat hepatocyte cell line). FIG. 49E-F. IP3R Activity is Required for Forskolin-Induced G6Pase and PEPCK (primary murine hepatocytes). FIG. 49G-H. IP3R1 Anti-Sense Oligonucleotide Suppresses Forskolin-Induced G6Pase and PEPCK (primary murine hepatocytes). FIG. 49I. Forskolin Activates IP3R Activity in FAO Hepatocytes (Inositol/ATP-Induced Calcium Release Assay). FIG. 49J. The PKA Inhibitor H89 Suppresses Forskolin-Induced IP3R Activation. FIG. 49K-L. IP3R Activity is Required for Forskolin-Induced PGC1a. FIG. 49M-N. Calcineurin Inhibitory Peptide Suppresses Forskolin-Induced G6Pase and PEPCK. FIG. 49O. IP3R Activity is Required for Forskolin-Induced Calcineurin Activation. FIG. 49P-Q. IP3R Activity is Required for Forskolin-Induced TORC2 Dephosphorylation and Nuclear Localization. FIG. 49R. TORC2 Transduction Partially Restores Forskolin-Induced G6Pase in IP3R-Inhibited Hepatocytes. FIG. 49S. Xestospongin C Treatment Reduces Fasting Glucose Levels in C57BL/6J Mice.

[4] = test system: Akt; assay: Insulin-induced Akt phosphorylation in palmitate-treated primary mouse hepatocytes; type: cell-based; conditions: HCs with normal p38 (Ad-LacZ)
Description: FIGS. 92A-D. Inhibition of CaMKII or p38α Improves Insulin-induced Akt Phosphorylation in Palmitate-treated Primary Hepatocytes. FIG. 92A. Primary HCs from WT mice were transduced with adeno-LacZ or -K43A-CaMKII at an MOI of 10 and then 24 h later incubated with either BSA control or 0.2 mM palmitate for 19 h, with the last 5 h in serum-free media. The cells were then treated with 100 nM insulin or vehicle control for 5 min, and lysates were probed for p-Akt, total Akt, and β-actin by immunoblot (left panel) or immunoprecipitated for IRS-1 and then assayed by immunoblot for the total level of IRS-1 or for phospho-Tyr (PY) (right panel). FIG. 92B. HCs from Mapk14^fl/fl mice were transduced with adeno-LacZ or -Cre and 24 h later incubated with palmitate and then insulin as in FIG. 92A. Lysates were probed for p-Akt, total Akt, β-actin (upper panel), p-GSK3β, total GSK3β, p-FoxO1 and total FoxO1 by immunoblot or immunoprecipitated for IR and IRS-1 and then assayed by immunoblot for the total level of the respective proteins or for phospho-Tyr (lower panel). FIG. 92C. Primary human HCs (metabolism-controlled) were transduced with adeno-LacZ or -K43A-CaMKII at an MOI of 30 and then 36 h later incubated with either BSA control or 0.2 mM palmitate for 10 h, with the last 5 h in serum-free media. […]

[5] = test system: dach1 and dach2 mRNA; assay: dach1 and dach2 mRNA in primary mouse hepatocytes; type: cell-based; conditions: WT HCs, 0.5 mM, 6 h
Description: FIG. 115. Palmitate induces dach1 and dach2 mRNA levels. Primary HCs from WT mice were treated with 0.5 mM palmitate for 6 h. RNA was assayed for dach1 and dach2 mRNA by RT-qPCR (*p<0.05; mean±S.E.M.).

[6] = test system: TRB3; assay: TRB3 levels in primary mouse hepatocytes; type: cell-based; conditions: control HCs
Description: FIGS. 93A-E: Improvement in Insulin-induced Akt Phosphorylation and Glucose Homeostasis by CaMKII Deficiency are Abrogated by Restoring TRB3. FIG. 93A. HCs from Camk2g^fl/fl mice were transduced with adeno-LacZ or -Cre and then 24 h later incubated with BSA or palmitate (0.2 mM) for 19 h. Lysates were immunoblotted for TRB3 and β-actin. FIG. 93B. TRB3 and β-actin were probed in livers from DIO WT mice, Camk2g^−/− mice, or Camk2g^fl/fl mice treated with TBG-LacZ or TBG-Cre. Densitometric quantification of the immunoblot data is shown in the graph (*p<0.05; mean±S.E.M.). FIGS. 93C-E. DIO Camk2g^fl/fl mice were treated with TBG-Cre or TBG-LacZ, and five days later, half of the […] received adeno-TRB3, while the other half received adeno-LacZ control. Livers were assayed for p-Akt, total Aid, TRB3 and β-actin by immunoblotting after fasting the mice for 16 h and then re-feeding them for 4 h. 5 h fasting and fasted-refed blood glucose and plasma insulin were assayed after 4 weeks of treatment (Differing symbols indicate p<0.05; mean±S.E.M.). See also FIG. 99.

[7] = test system: ATF4; assay: Nuclear ATF4 in primary mouse hepatocytes; type: cell-based; conditions: control HCs
Description: FIGS. 94A-F: Improvement in Insulin-induced Akt Phosphorylation and Glucose Homeostasis by CaMKII Deficiency are Abrogated by Restoring ATF4. FIG. 94A. HCs from Camk2g^fl/fl mice were transduced with adeno-LacZ or -Cre. 24 h later, cells were incubated with tunicamycin (0.5 μg/ml) or vehicle control for 4 h. Nuclear lysates were immunoblotted for ATF4 and nucleophosmin (Np) as a loading control. FIG. 94B. Nuclear ATF4 and nucleophosmin (Np) were probed in livers from DIO Camk2g^fl/fl mice treated with TBG-Cre or TBG-LacZ or ob/ob mice treated with adeno-LacZ or -K43A-CaMKII. FIG. 94C. HCs from […] were transduced with adeno-LacZ or -Cre and then 4 h later, half of the adeno-Cre transduced cells received adeno-ATF4, while the other half received adeno-LacZ control. After 24 h, the cells were incubated with palmitate and then insulin-induced p-Akt was assayed as in FIG. 92. FIG. 94D. As in FIG. 94C, except that Trb3 mRNA was assayed by RT-qPCR (Bars with different symbols are different from each other and control, p<0.01; mean±S.E.M.). […] Livers were assayed for p-Akt, total Aid, β-actin and nuclear ATF4 and nucleophosmin (Np) by immunoblotting after insulin injection through portal vein. 5 h fasting blood glucose and plasma insulin were assayed after three weeks of treatment (Differing symbols indicate p<0.05; mean±S.E.M.). See also FIG. 100.

## Cl.Cl.O=S(=O)(NCCNCC=Cc1ccc(Br)cc1)c1cccc2cnccc12 [H89, N-[2-[[3-(4-Bromophenyl)-2-propenyl]amino]ethyl]-5-isoquinolinesulfonamide dihydrochloride]
[1]; HCs pre-treated with inhibitor, then glucagon
  glucagon-induced CaMKII phosphorylation: markedly inhibited
[2]
  cytosolic calcium mobilization in response to glucagon (and forskolin): partially reversed
[3]
  Forskolin-Induced IP3R Activation: Suppresses

## CCCCCCCCCCCCCCCC(=O)O [palmitate]
[1]; ER stress activation
  p-CaMKIIγ in HCs: increased
[4]
  insulin-induced p-Akt signal: lowered
[5]
  dach1 and dach2 mRNA levels: induces
[6]
  TRB3 levels: increase

## tunicamycin
[7]
  ATF4: increased
